Laboratory results reported in patent US20180312473A1, “PHENAZINE DERIVATIVES AS ANTIMICROBIAL AGENTS” (priority 2015, published 2018).
In brackets after ≈: the same amount, converted by molar mass. Several values for one entry are separate records, joined by “and”; a condition that tells them apart may be missing. Equal values may be shown once. Read-outs that look alike come from different tables or passages of the source.

Columns and labels:
human red blood cells = experiment: Hemolysis assay with red blood cells; conditions: human, 1 h, 200 μM, pH 7.2
How it was run: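 Hemolysis expressed as percent of the Triton X signal with DMSO as zero, using OD405 of supernatant. Compounds from DMSO stocks were incubated with triple-washed human erythrocytes for 1 hour at 37° C. before centrifugation; three independent experiments.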

[1] = system: M. tuberculosis H37Ra (ATCC 25177); experiment: Mycobacterium tuberculosis MIC assay; type: cell-based
How it was run: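 Culture diluted to OD600 0.01 and exposed to compounds in 0.5% final DMSO, each compound tested in three rows. Growth read as OD600 absorbance. Data from three independent experiments.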

[2] = system: MRSA-1 (methicillin-resistant Staphylococcus aureus clinical isolate); experiment: MIC assay (broth microdilution, CLSI); type: cell-based; conditions: Staphylococcus aureus, MRSA, read-out: MIC, MRSA-1
MRSA BAA-1707 = experiment: MIC assay (broth microdilution, CLSI); conditions: Staphylococcus aureus, read-out: MIC, MRSA BAA-1707
[3] = system: methicillin-resistant S. aureus (MRSA) strains; experiment: MIC assay, values summarised over MRSA strains; type: cell-based, Staphylococcus aureus
[4] = system: Staphylococcus epidermidis (ATCC 35984), MRSE; experiment: MIC assay (broth microdilution, CLSI); type: cell-based; conditions: Staphylococcus epidermidis
[5] = system: MRSA-2 (methicillin-resistant Staphylococcus aureus clinical isolate); experiment: MIC assay (broth microdilution, CLSI); type: cell-based; conditions: Staphylococcus aureus, MRSA, read-out: MIC, MRSA-2
[6] = system: MRSA-2 planktonic cells and biofilms; experiment: Calgary Biofilm Device (CBD) assay, MBC/MBEC; type: cell-based, Staphylococcus aureus; conditions: for MBC: Staphylococcus aureus, MRSA
[7] = system: VRE (E. faecium ATCC 700221) planktonic cells and biofilms; experiment: Calgary Biofilm Device (CBD) assay, MBC/MBEC; type: cell-based, Enterococcus faecium; conditions: for MBC: Enterococcus
[8] = system: S. aureus clinical isolate SA 138; experiment: MIC assay (broth microdilution, CLSI); conditions: Staphylococcus aureus, read-out: MIC, SA 138
HeLa cells = experiment: in vitro; type: cell-based
in vitro = type: cell-based; conditions: human
[9] = system: MRSE (S. epidermidis ATCC 35984) planktonic cells and biofilms; experiment: Calgary Biofilm Device (CBD) assay, MBC/MBEC; type: cell-based, Staphylococcus epidermidis; conditions: for MBC: Staphylococcus epidermidis
[10] = system: MRSA BAA-44 planktonic cells and biofilms; experiment: Calgary Biofilm Device (CBD) assay, MBC/MBEC; conditions: Staphylococcus aureus, read-out: MRSA BAA-44 MBC
[11] = Mycobacterium tuberculosis, Table 7, read-out: MIC, M. tuberculosis H37Ra
[12] = Table 2B, b lowest concentration tested
[13] = Table 2B, read-out: MIC, Staphylococcus epidermidis (ATCC 35984)
[14] = Table 7, read-out: MIC, MRSE 35984
[15] = Table 2B, a midpoint of 2-fold range, * partial growth inhibition at highest concentration
[16] = Table 7, a midpoint of 2-fold range, b lowest concentration tested
[17] = Table 5, a/b midpoint of 2-/4-fold range, read-out: MRSA-2 MBC
[18] = Table 8, a/b 2-/4-fold range in independent experiments, read-out: MRSA-2 MBC
[19] = Table 8, read-out: MRSE 35984 MBC
[20] = viable biofilm cell count from CBD peg

Structure (SMILES) | % Hemolysis (200 μM) (human red blood cells) [%] | % Hemolysis at 200 μM (human red blood cells) [%] | MIC [1, 11] [µM] | MIC [2, 12] [µM] | MIC ([2]; Table 11) [µM] | MIC (MRSA BAA-1707) [µM] | MIC [4, 13] [µM] | MIC [4, 14] [µM] | MIC [5, 15] [µM] | MIC [5, 16] [µM] | MBC [6, 17] [µM] | MBC [6, 18] [µM] | MIC [8] [µM] | IC50 (HeLa cells; human, 24 h) [µM] | IC50 at 24 h (in vitro) [µM] | MBC ([9]; Table 5, read-out: MRSE MBC) [µM] | MBC [9, 19] [µM] | MBC [10] [µM] | also measured
Oc1ccc(I)c2nc3cc(Cl)c(Cl)cc3nc12 [Compound 12, 7,8-Dichloro-4-iodo-1-hydroxyphenazine] | 1.4 | 1.4 | 3.13 | 0.2 (≈ 0.0782 µg/mL) | 0.3 (≈ 0.117 µg/mL) | 0.15 (≈ 0.0586 µg/mL) | 0.78 (≈ 0.305 µg/mL) | 0.78 (≈ 0.305 µg/mL) | 0.39 (≈ 0.152 µg/mL) | 0.39 (≈ 0.152 µg/mL) | 25 (≈ 9.77 µg/mL) | 25 (≈ 9.77 µg/mL) | 0.59 (≈ 0.231 µg/mL) | > 100 | > 100 | 9.38 (≈ 3.67 µg/mL) | 9.38 (≈ 3.67 µg/mL) | 75 (≈ 29.3 µg/mL) | MIC ([1]; Mycobacterium tuberculosis, 168 h, read-out: Mtb MIC): 3.13 µM; MIC ([1]; Mycobacterium tuberculosis, read-out: MIC, M. tuberculosis): ~1 µg/mL; MIC ([3]; Staphylococcus aureus, MRSA, range over the MRSA strains/isolates tested, read-out: MIC against MRSA strains): 0.15 to 0.59 µM (≈ 0.0586 to 0.231 µg/mL); MIC ([4]; Table 2A, read-out: MIC, Staphylococcus epidermidis (ATCC 35984)): 0.78 µM (≈ 0.305 µg/mL); MIC ([5]; Table 2A): 0.39 µM (≈ 0.152 µg/mL); MBC ([6]; Table 4, read-out: MBC, MRSA-2): 25 µM (≈ 9.77 µg/mL); MBC ([7]; read-out: VRE 700221 MBC): 3.13 µM (≈ 1.22 µg/mL); MRSE MBEC ([9]; Table 5): 75 µM
Oc1c(Br)cc(I)c2nc3cc(Cl)c(Cl)cc3nc12 [Compound 14, 2-bromo-7,8-dichloro-4-iodo-1-hydroxyphenazine] | 2.7 | 2.7 | 12.5 | 0.1 (≈ 0.047 µg/mL) | 0.1 (≈ 0.047 µg/mL) | 0.3 (≈ 0.141 µg/mL) | 3.13 (≈ 1.47 µg/mL) | 3.13 (≈ 1.47 µg/mL) | 3.13 (≈ 1.47 µg/mL) | 3.13 (≈ 1.47 µg/mL) | 3.13 (≈ 1.47 µg/mL) | 3.13 (≈ 1.47 µg/mL) | 0.59 (≈ 0.277 µg/mL) | > 50 | > 50 | 1.56 (≈ 0.733 µg/mL) | 1.56 (≈ 0.733 µg/mL) | 12.5 (≈ 5.87 µg/mL) | MIC ([1]; Mycobacterium tuberculosis, 168 h, M. tuberculosis H37Ra, 7 days, read-out: Mtb MIC): 12.5 µM; MIC ([1]; Table 7, read-out: MIC, M. tuberculosis H37Ra): 12.5 µM; growth inhibition activity against at least one MRSA strain [3]: sub-micromolar; persister cells eradicated within MRSA biofilms at the MBEC [6, 20]: > 99.9%; persister cells eradicated within MRSA-2 biofilms at the MBEC [6, 20]: > 3 log; MBC ([7]; Table 5, c lowest concentration tested, read-out: VRE MBC): 0.2 µM (≈ 0.094 µg/mL); MBC ([7]; Table 8, c lowest concentration tested, read-out: VRE 700221 MBC): 0.2 µM (≈ 0.094 µg/mL); VRE MBEC ([7]; Table 5, c lowest concentration tested, listed as 214): 0.20 μM and 0.20^c/0.20^c μM; HeLa cytotoxicity at 50 μM (HeLa cells): no cytotoxicity was observed; HeLa cytotoxicity at 50 μM (HeLa cells; human, 24 h, 50 μM): No HeLa cell death; HeLa cell death at 100 μM (HeLa cells; human, 24 h, 100 μM): ~70%; MRSE MBEC ([9]; Table 5, listed as 214): 1.56 μM and 1.56/1.56 μM
